# Experimental data: patent US10745382B2 (BRISTOL-MYERS SQUIBB COMPANY, priority 2015, dated 2020)
# Like-named read-outs stand apart in the source and are kept apart here.
# Biological target: T1, PD-1/PD-L1 (Homo sapiens, UniProt Q9NZQ7)
# T1 construct: made in house; host or cells: HEK293T
# Test: PD-1/PD-L1 Homogenous Time-Resolved Fluorescence (HTRF) binding assay
# Conditions: PD-L1-His 10 nM, PD-1-Ig 20 nM, read-out: Range or IC50
# Method in brief: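 Compounds are tested for blocking the PD-1/PD-L1 interaction in dPBS supplemented with 0.1% BSA and 0.05% (v/v) Tween-20. Tagged proteins are detected with Eu-cryptate anti-Ig and APC anti-His at 1 and 20 nM final.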
# T1 sequence (Q9NZQ7 with tags, fused parts or gaps): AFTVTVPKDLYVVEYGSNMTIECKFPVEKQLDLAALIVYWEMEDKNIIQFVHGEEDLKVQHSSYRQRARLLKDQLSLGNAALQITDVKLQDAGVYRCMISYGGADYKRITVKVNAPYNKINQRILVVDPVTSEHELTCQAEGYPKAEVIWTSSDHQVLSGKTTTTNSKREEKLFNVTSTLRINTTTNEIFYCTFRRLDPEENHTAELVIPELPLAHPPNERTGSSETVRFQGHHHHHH
IC50 (value given as range class),IC50 (numeric IC50),Compound
10 to 100 nM,–,"CCNC(=O)c1cccc(-c2cccc(COc3cc(OCc4cncc(C#N)c4)c(CNC(CO)CO)cc3Cl)c2C)c1C [Example 4009, 3′-((2-chloro-5-((5-cyanopyridin-3-yl)methoxy)-4-(((1,3-dihydroxypropan-2-yl)amino)methyl)phenoxy)methyl)-N-ethyl-2,2′-dimethyl-[1,1′-biphenyl]-3-carboxamide]"
–,11 nM,"CCNC(=O)c1cccc(-c2cccc(COc3cc(OCc4cncc(C#N)c4)c(CNC(C)(CO)CO)cc3Cl)c2C)c1C [Example 4010, 3′-((2-chloro-5-((5-cyanopyridin-3-yl)methoxy)-4-(((1,3-dihydroxy-2-methylpropan-2-yl)amino)methyl)phenoxy)methyl)-N-ethyl-2,2′-dimethyl-[1,1′-biphenyl]-3-carboxamide]"
10 to 100 nM,–,"CNC(=O)c1cccc(-c2cccc(COc3cc(OCc4cncc(C#N)c4)c(CN4CCCC[C@H]4C(=O)O)cc3Cl)c2C)c1C [Example 4011, (S)-1-(5-chloro-2-((5-cyanopyridin-3-yl)methoxy)-4-((2,2′-dimethyl-3′-(methylcarbamoyl)-[1,1′-biphenyl]-3-yl)methoxy)benzyl)piperidine-2-carboxylic Acid]"
10 to 100 nM,–,"CNC(=O)c1cccc(-c2cccc(COc3cc(OCc4cncc(C#N)c4)c(CN4CCC[C@H]4C(=O)O)cc3Cl)c2C)c1C [Example 4012, (5-chloro-2-((5-cyanopyridin-3-yl)methoxy)-4-((2,2′-dimethyl-3′-(methylcarbamoyl)-[1,1′-biphenyl]-3-yl)methoxy)benzyl)-L-proline]"
10 to 100 nM,–,"CNC(=O)c1cccc(-c2cccc(COc3cc(OCc4cncc(C#N)c4)c(CN4C[C@H](O)C[C@H]4C(=O)O)cc3Cl)c2C)c1C [Example 4013, (2S,4R)-1-(5-chloro-2-((5-cyanopyridin-3-yl)methoxy)-4-((2,2′-dimethyl-3′-(methylcarbamoyl)-[1,1′-biphenyl]-3-yl)methoxy)benzyl)-4-hydroxypyrrolidine-2-carboxylic Acid]"
2010 to 10000 nM,–,"CNC(=O)c1cccc(-c2cccc(COc3cc(OCc4cncc(C#N)c4)c(CN4C[C@@H](O)C[C@H]4C(=O)O)cc3Cl)c2C)c1C [Example 4014, (2S,4S)-1-(5-chloro-2-((5-cyanopyridin-3-yl)methoxy)-4-((2,2′-dimethyl-3′-(methylcarbamoyl)-[1,1′-biphenyl]-3-yl)methoxy)benzyl)-4-hydroxypyrrolidine-2-carboxylic Acid]"
0.21 to 10 nM,–,"CNC(=O)c1cccc(-c2cccc(COc3cc(OCc4cncc(C#N)c4)c(CNC(CO)CO)cc3Cl)c2C)c1C [Example 4015, 3′-((2-chloro-5-((5-cyanopyridin-3-yl)methoxy)-4-(((1,3-dihydroxypropan-2-yl)amino)methyl)phenoxy)methyl)-N,2,2′-trimethyl-[1,1′-biphenyl]-3-carboxamide]"
0.21 to 10 nM,–,"CNC(=O)c1cccc(-c2cccc(COc3cc(OCc4cncc(C#N)c4)c(CNC(C)(CO)CO)cc3Cl)c2C)c1C [Example 4016, 3′-((2-chloro-5-((5-cyanopyridin-3-yl)methoxy)-4-(((1,3-dihydroxy-2-methylpropan-2-yl)amino)methyl)phenoxy)methyl)-N,2,2′-trimethyl-[1,1′-biphenyl]-3-carboxamide]"
100 to 2000 nM,–,"CCNC(=O)c1cccc(-c2cccc(COc3cc(OCc4cc(F)cc(F)c4)c(CN4CCCC[C@H]4C(=O)O)cc3Cl)c2C)c1C [Example 4017, (S)-1-(5-chloro-2-((3,5-difluorobenzyl)oxy)-4-((3′-(ethylcarbamoyl)-2,2′-dimethyl-[1,1′-biphenyl]-3-yl)methoxy)benzyl)piperidine-2-carboxylic Acid]"
100 to 2000 nM,–,"CCNC(=O)c1cccc(-c2cccc(COc3cc(OCc4cc(F)cc(F)c4)c(CN4CCC[C@H]4C(=O)O)cc3Cl)c2C)c1C [Example 4018, (5-chloro-2-((3,5-difluorobenzyl)oxy)-4-((3′-(ethylcarbamoyl)-2,2′-dimethyl-[1,1′-biphenyl]-3-yl)methoxy)benzyl)-L-proline]"
100 to 2000 nM,–,"CCNC(=O)c1cccc(-c2cccc(COc3cc(OCc4cc(F)cc(F)c4)c(CN4C[C@H](O)C[C@H]4C(=O)O)cc3Cl)c2C)c1C [Example 4019, (2S,4R)-1-(5-chloro-2-((3,5-difluorobenzyl)oxy)-4-((3′-(ethylcarbamoyl)-2,2′-dimethyl-[1,1′-biphenyl]-3-yl)methoxy)benzyl)-4-hydroxypyrrolidine-2-carboxylic Acid]"
2010 to 10000 nM,–,"CCNC(=O)c1cccc(-c2cccc(COc3cc(OCc4cc(F)cc(F)c4)c(CN4CCOC[C@H]4C(=O)O)cc3Cl)c2C)c1C [Example 4020, (S)-4-(5-chloro-2-((3,5-difluorobenzyl)oxy)-4-((3′-(ethylcarbamoyl)-2,2′-dimethyl-[1,1′-biphenyl]-3-yl)methoxy)benzyl)morpholine-3-carboxylic Acid]"
100 to 2000 nM,–,"CCNC(=O)c1cccc(-c2cccc(COc3cc(OCc4cc(F)cc(F)c4)c(CNC(CO)CO)cc3Cl)c2C)c1C [Example 4021, 3′-((2-chloro-5-((3,5-difluorobenzyl)oxy)-4-(((1,3-dihydroxypropan-2-yl)amino)methyl)phenoxy)methyl)-N-ethyl-2,2′-dimethyl-[1,1′-biphenyl]-3-carboxamide]"
100 to 2000 nM,–,"CCNC(=O)c1cccc(-c2cccc(COc3cc(OCc4cc(F)cc(F)c4)c(CNC(C)(CO)CO)cc3Cl)c2C)c1C [Example 4022, 3′-((2-chloro-5-((3,5-difluorobenzyl)oxy)-4-(((1,3-dihydroxy-2-methylpropan-2-yl)amino)methyl)phenoxy)methyl)-N-ethyl-2,2′-dimethyl-[1,1′-biphenyl]-3-carboxamide]"
100 to 2000 nM,–,"CNC(=O)c1cccc(-c2cccc(COc3cc(OCc4cc(F)cc(F)c4)c(CN4CCCC[C@H]4C(=O)O)cc3Cl)c2C)c1C [Example 4023, (S)-1-(5-chloro-2-((3,5-difluorobenzyl)oxy)-4-((2,2′-dimethyl-3′-(methylcarbamoyl)-[1,1′-biphenyl]-3-yl)methoxy)benzyl)piperidine-2-carboxylic Acid]"
–,87 nM,"CNC(=O)c1cccc(-c2cccc(COc3cc(OCc4cc(F)cc(F)c4)c(CN4CCC[C@H]4C(=O)O)cc3Cl)c2C)c1C [Example 4024, (5-chloro-2-((3,5-difluorobenzyl)oxy)-4-((2,2′-dimethyl-3′-(methylcarbamoyl)-[1,1′-biphenyl]-3-yl)methoxy)benzyl)-L-proline]"
100 to 2000 nM,–,"CNC(=O)c1cccc(-c2cccc(COc3cc(OCc4cc(F)cc(F)c4)c(CN4C[C@H](O)C[C@H]4C(=O)O)cc3Cl)c2C)c1C [Example 4025, (2S,4R)-1-(5-chloro-2-((3,5-difluorobenzyl)oxy)-4-((2,2′-dimethyl-3′-(methylcarbamoyl)-[1,1′-biphenyl]-3-yl)methoxy)benzyl)-4-hydroxypyrrolidine-2-carboxylic Acid]"
100 to 2000 nM,–,"CNC(=O)c1cccc(-c2cccc(COc3cc(OCc4cc(F)cc(F)c4)c(CN4C[C@@H](O)C[C@H]4C(=O)O)cc3Cl)c2C)c1C [Example 4026, (2S,4S)-1-(5-chloro-2-((3,5-difluorobenzyl)oxy)-4-((2,2′-dimethyl-3′-(methylcarbamoyl)-[1,1′-biphenyl]-3-yl)methoxy)benzyl)-4-hydroxypyrrolidine-2-carboxylic Acid]"
2010 to 10000 nM,–,"CNC(=O)c1cccc(-c2cccc(COc3cc(OCc4cc(F)cc(F)c4)c(CN4CCOC[C@H]4C(=O)O)cc3Cl)c2C)c1C [Example 4027, (S)-4-(5-chloro-2-((3,5-difluorobenzyl)oxy)-4-((2,2′-dimethyl-3′-(methylcarbamoyl)-[1,1′-biphenyl]-3-yl)methoxy)benzyl)morpholine-3-carboxylic Acid]"
100 to 2000 nM,–,"CNC(=O)c1cccc(-c2cccc(COc3cc(OCc4cc(F)cc(F)c4)c(C=O)cc3Cl)c2C)c1C [Example 4028, 3′-((2-chloro-5-((3,5-difluorobenzyl)oxy)-4-formylphenoxy)methyl)-N,2,2′-trimethyl-[1,1′-biphenyl]-3-carboxamide]"
10 to 100 nM,–,"CNC(=O)c1cccc(-c2cccc(COc3cc(OCc4cc(F)cc(F)c4)c(CNC(C)(CO)CO)cc3Cl)c2C)c1C [Example 4029, 3′-((2-chloro-5-((3,5-difluorobenzyl)oxy)-4-(((1,3-dihydroxy-2-methylpropan-2-yl)amino)methyl)phenoxy)methyl)-N,2,2′-trimethyl-[1,1′-biphenyl]-3-carboxamide]"
100 to 2000 nM,–,"Cc1c(COc2cc(OCc3cncc(C#N)c3)c(CN3CCCC[C@H]3C(=O)O)cc2Cl)cccc1-c1cccc(C(=O)N(C)C)c1C [Example 4030, (S)-1-(5-chloro-2-((5-cyanopyridin-3-yl)methoxy)-4-((3′-(dimethylcarbamoyl)-2,2′-dimethyl-[1,1′-biphenyl]-3-yl)methoxy)benzyl)piperidine-2-carboxylic Acid]"
2010 to 10000 nM,–,"Cc1c(COc2cc(OCc3cncc(C#N)c3)c(CN3CCC[C@H]3C(=O)O)cc2Cl)cccc1-c1cccc(C(=O)N(C)C)c1C [Example 4031, (5-chloro-2-((5-cyanopyridin-3-yl)methoxy)-4-((3′-(dimethylcarbamoyl)-2,2′-dimethyl-[1,1′-biphenyl]-3-yl)methoxy)benzyl)-L-proline]"
100 to 2000 nM,–,"Cc1c(COc2cc(OCc3cncc(C#N)c3)c(CN3C[C@H](O)C[C@H]3C(=O)O)cc2Cl)cccc1-c1cccc(C(=O)N(C)C)c1C [Example 4032, (2S,4R)-1-(5-chloro-2-((5-cyanopyridin-3-yl)methoxy)-4-((3′-(dimethylcarbamoyl)-2,2′-dimethyl-[1,1′-biphenyl]-3-yl)methoxy)benzyl)-4-hydroxypyrrolidine-2-carboxylic Acid]"
